{"source": "patent US8242086B2", "about": "“Methods and compositions for treating disorders caused by a deficiency in a gene product of a CLN gene” (Duke University, priority 2008, dated 2012)", "key": {"[1]": {"experiment": "Intraperitoneal GalCer injection of normal mice, GalCer mass in kidney subcellular fractions (TLC)", "type": "in vivo, mouse", "conditions": "intraperitoneal injection (α-GalCer), two days prior to sacrifice", "text": "Mouse experiments. Six homozygous Cln3^Δex7/8 adult 60 day old mice and six age and sex-matched control mice were deeply anesthetized by xylazine/ketamine and sacrificed by cardiac perfusion of ice-cold phosphate-buffered saline (PBS, pH 7.4), followed by periodate-lysine-phosphate (PLP) fixative (2% paraformaldehyde, 0.01M sodium periodate and 0.1M lysine phosphate buffer, pH 7.4). Mouse brains were snap-frozen in liquid nitrogen. Three of the frozen brains from each group were used for subcellular fractionation and thin layer chromatography, and frozen sections were obtained for fluorescence immunocytochemistry from the rest. At the age of 60 days and two days prior to sacrifice, three of six control mice were injected with α-GalCer at a dose of […] or vehicle intraperitoneally. They were deeply anesthetized by xylazine/ketamine and sacrificed by cardiac perfusion of ice-cold phosphate-buffered saline (PBS, pH 7.4), followed by periodate-lysine-phosphate (PLP) fixative (2% paraformaldehyde, 0.01M sodium periodate and 0.1M lysine phosphate buffer, pH 7.4). […]\nThin Layer Chromatography for Quantification of Galactosylceramide. […] Lipid quantification was accomplished with ImageQuant™ program and normalized with respect to phosphate content."}, "[2]": {"tested_on": "CLN3-deficient human NT2 neuronal precursor cells", "experiment": "Lipid raft GalCer in CLN3-deficient NT2 cells after GalCer supplementation", "type": "cell-based", "conditions": "exogenous GalCer supplementation"}, "CLN8 protein": {"tested_on": "CLN8 protein", "experiment": "Protein-lipid overlay assay, CLN8 protein", "type": "binding", "conditions": "lysates from normal cells, custom made sphingostrips", "protocol": "(§1) Protein-lipid overlay assay. Membrane arrays (SPHINGOSTRIPS (Echelon Research Laboratories, Salt Lake City, Utah), or lipids were spotted on nitrocellulose membranes and dried for at least one hour. Membranes were blocked with 3% (wt/vol) Fatty Acid Free or FFA-BSA (Sigma-Aldrich, St. Louis, Mo.) in Tris-Buffered Saline Tween-20 (TBST) [150 mM NaCl/10 mM Tris.HCl (pH 8.0), and 0.1% (vol/vol) Tween-20] for 1 h at RT. Blocked membranes were incubated for 8 h at 4° C. with 2 mg/ml of total cell lysate.\n(§2) Fibroblasts overexpressing CLN3p (AC1 cells) and JNCL fibroblasts were used for the GalCer-CLN3 binding assay. The membranes were then washed five times for 5 min each with TBST. After washing, membranes were incubated with anti-CLN3, CLN1, CLN2, CLN6 or CLN8-antibodies overnight at 1:1000 dilution, followed by additional washing and incubation with horseradish peroxidase-conjugated anti-rabbit IgG goat antibody for 1 h at RT. After a final washing, enhanced chemiluminescence was used to detect binding of NCL proteins to sphingolipids. Intensity values were computed with an ImageJ software program.\nCLN1, CLN2, CLN6, CLN8 and CLN9 proteins also bind to lipids. […]"}, "[3]": {"conditions": "investigated as a cancer therapy; cited from earlier work"}, "wild-type CLN3p": {"molecular_target": "T1, wild-type CLN3p (Homo sapiens, UniProt Q13286)", "T1 construct": "expressed in transfected cells; host or cells: fibroblasts overexpressing CLN3p (AC1 cells)", "T1 sequence (Q13286 1-438)": "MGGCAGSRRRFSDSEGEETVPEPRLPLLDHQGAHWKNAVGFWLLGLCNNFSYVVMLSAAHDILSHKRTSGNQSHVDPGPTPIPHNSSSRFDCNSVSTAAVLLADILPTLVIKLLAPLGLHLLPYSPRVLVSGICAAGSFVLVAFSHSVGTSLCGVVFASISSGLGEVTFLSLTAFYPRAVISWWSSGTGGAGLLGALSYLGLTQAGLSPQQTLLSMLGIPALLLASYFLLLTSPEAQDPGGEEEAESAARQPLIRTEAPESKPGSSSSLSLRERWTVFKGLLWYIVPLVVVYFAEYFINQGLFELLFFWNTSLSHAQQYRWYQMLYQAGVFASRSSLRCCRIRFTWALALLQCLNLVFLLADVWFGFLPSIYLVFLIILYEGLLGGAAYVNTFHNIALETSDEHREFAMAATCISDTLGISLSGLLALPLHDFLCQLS", "experiment": "Protein-lipid overlay assay, wild-type CLN3p", "type": "binding", "protocol": "as §1, §2\nBinding of CLN3 to GalCer and sulfatide. Membranes impregnated with sphingolipids were overlaid with protein cell lysates from CLN3-overexpressing and JNCL cells. Anti-CLN3 antibody was used to evaluate binding. […] The signal for GalCer-wild-type CLN3p binding was weaker because the more polar sulfatide competes with the less polar GalCer for binding to wild-type CLN3p."}}, "note": "“Also recorded” adds a separate entry of the source."}
{"substance": "galactosylceramide [GalCer]", "values": [{"measurement": "kidney Golgi GalCer", "setting": "[1]", "value": "concomitant reduction in Golgi GalCer; also recorded: concomitant drop in Golgi GalCer"}, {"measurement": "kidney lipid raft (plasma membrane) GalCer", "setting": "[1]", "value": "increase GalCer at the plasma membrane; also recorded: increases kidney lipid raft GalCer"}, {"measurement": "GalCer in lipid rafts of CLN3-deficient NT2 cells", "setting": "[2]", "value": "normalizes GalCer in lipid rafts"}, {"measurement": "binding of CLN8 protein to lipid", "setting": "CLN8 protein", "value": "bind"}, {"measurement": "safety in humans", "setting": "[3]", "value": "documented to be safe in humans"}, {"measurement": "binding of wild-type CLN3p to membrane spots impregnated with the lipid", "setting": "wild-type CLN3p; lysate of CLN3-overexpressing cells, anti-CLN3 antibody", "value": "bind strongly"}, {"measurement": "binding of CLN3p to GalCer when sulfatide was omitted from the membrane", "setting": "wild-type CLN3p; sulfatide omitted, dose dependent", "value": "stronger binding"}]}
